Measurements from ChEMBL document CHEMBL2434921, “New synthetic aliphatic sulfonamido-quaternary ammonium salts as anticancer chemotherapeutic agents” (2013).
Active and inactive are the calls of the source. No cut-off for these calls is given here.

Tests used:
NCI-H23 [1] = assay: Growth of human NCI-H23 cells at 0.3 uM after 48 hrs by SRB assay; settings: NCI-H23, 48 h
NUGC-3 [2] = assay: Growth inhibition of human NUGC3 cells at 10 uM after 48 hrs by SRB assay; values are per cent of control; settings: NUGC-3, 48 h
HCT-15 [3] = assay: Growth inhibition of human HCT15 cells at 10 uM after 48 hrs by SRB assay; values are per cent of control; settings: HCT-15, 48 h
HCT-15 [4] = assay: Growth inhibition of human HCT15 cells at 1 uM after 48 hrs by SRB assay; values are per cent of control; settings: HCT-15, 48 h
ACHN [5] = assay: Growth of human ACHN cells at 0.3 uM after 48 hrs by SRB assay
NCI-H23 [6] = assay: Growth inhibition of human NCI-H23 cells after 48 hrs by SRB assay; type: functional; settings: NCI-H23, 48 h
NUGC-3 [7] = assay: Growth inhibition of human NUGC3 cells after 48 hrs by SRB assay; type: functional; settings: NUGC-3, 48 h
ACHN [8] = assay: Growth of human ACHN cells at 10 uM after 48 hrs by SRB assay
HCT-15 [9] = assay: Growth inhibition of human HCT15 cells after 48 hrs by SRB assay; type: functional; settings: HCT-15, 48 h
PC-3 [10] = assay: Growth inhibition of human PC3 cells after 48 hrs by SRB assay; type: functional; settings: PC-3, 48 h
NCI-H23 [11] = assay: Growth of human NCI-H23 cells at 10 uM after 48 hrs by SRB assay; settings: NCI-H23, 48 h
HCT-15 [12] = assay: Growth inhibition of human HCT15 cells at 0.1 uM after 48 hrs by SRB assay; values are per cent of control; settings: HCT-15, 48 h
PC-3 [13] = assay: Growth inhibition of human PC3 cells at 0.1 uM after 48 hrs by SRB assay; values are per cent of control; settings: PC-3, 48 h
PC-3 [14] = assay: Growth inhibition of human PC3 cells at 3 uM after 48 hrs by SRB assay; values are per cent of control; settings: PC-3, 48 h
NUGC-3 [15] = assay: Growth of human NUGC3 cells at 0.3 uM after 48 hrs by SRB assay; settings: NUGC-3, 48 h
MDA-MB-231 [16] = assay: Growth of human MDA-MB-231 cells at 3 uM after 48 hrs by SRB assay; values are per cent of control; settings: MDA-MB-231, 48 h
NCI-H23 [17] = assay: Growth inhibition of human NCI-H23 cells at 0.1 uM after 48 hrs by SRB assay; values are per cent of control; settings: NCI-H23, 48 h
MDA-MB-231 [18] = assay: Growth of human MDA-MB-231 cells at 0.1 uM after 48 hrs by SRB assay; settings: MDA-MB-231, 48 h
NUGC-3 [19] = assay: Growth of human NUGC3 cells at 1 uM after 48 hrs by SRB assay; settings: NUGC-3, 48 h
ACHN [20] = assay: Growth of human ACHN cells at 0.1 uM after 48 hrs by SRB assay
MDA-MB-231 [21] = assay: Growth inhibition of human MDA-MB-231 cells at 0.3 uM after 48 hrs by SRB assay; values are per cent of control; settings: MDA-MB-231, 48 h
HCT-15 [22] = assay: Growth of human HCT15 cells at 3 uM after 48 hrs by SRB assay; settings: HCT-15, 48 h
MDA-MB-231 [23] = assay: Growth of human MDA-MB-231 cells at 10 uM after 48 hrs by SRB assay; settings: MDA-MB-231, 48 h
NUGC-3 [24] = assay: Growth inhibition of human NUGC3 cells at 3 uM after 48 hrs by SRB assay; values are per cent of control; settings: NUGC-3, 48 h
NCI-H23 [25] = assay: Growth inhibition of human NCI-H23 cells at 1 uM after 48 hrs by SRB assay; values are per cent of control; settings: NCI-H23, 48 h
PC-3 [26] = assay: Growth of human PC3 cells at 10 uM after 48 hrs by SRB assay; settings: PC-3, 48 h
[27] = molecular target: Rho-related GTP-binding protein RhoB (Homo sapiens) (UniProt P62745); assay: Transactivation of RhoB (unknown origin) transfected in human HeLa cells at 5 uM measured over 10 secs by dual luciferase reporter gene assay; type: cell-based
MDA-MB-231 [28] = assay: Growth of human MDA-MB-231 cells at 1 uM after 48 hrs by SRB assay; settings: MDA-MB-231, 48 h
NUGC-3 [29] = assay: Growth of human NUGC3 cells at 0.1 uM after 48 hrs by SRB assay; settings: NUGC-3, 48 h
HCT-15 [30] = assay: Growth of human HCT15 cells at 0.3 uM after 48 hrs by SRB assay; settings: HCT-15, 48 h
ACHN [31] = assay: Growth inhibition of human ACHN cells at 1 uM after 48 hrs by SRB assay; values are per cent of control
PC-3 [32] = assay: Growth inhibition of human PC3 cells at 1 uM after 48 hrs by SRB assay; values are per cent of control; settings: PC-3, 48 h
NCI-H23 [33] = assay: Growth inhibition of human NCI-H23 cells at 3 uM after 48 hrs by SRB assay; values are per cent of control; settings: NCI-H23, 48 h
ACHN [34] = assay: Growth inhibition of human ACHN cells at 3 uM after 48 hrs by SRB assay; values are per cent of control
MDA-MB-231 [35] = assay: Growth inhibition of human MDA-MB-231 cells after 48 hrs by SRB assay; type: functional; settings: MDA-MB-231, 48 h
ACHN [36] = assay: Growth inhibition of human ACHN cells after 48 hrs by SRB assay; type: functional
PC-3 [37] = assay: Growth inhibition of human PC3 cells at 0.3 uM after 48 hrs by SRB assay; values are per cent of control; settings: PC-3, 48 h

Sequence of Rho-related GTP-binding protein RhoB (Homo sapiens) (P62745 whole entry): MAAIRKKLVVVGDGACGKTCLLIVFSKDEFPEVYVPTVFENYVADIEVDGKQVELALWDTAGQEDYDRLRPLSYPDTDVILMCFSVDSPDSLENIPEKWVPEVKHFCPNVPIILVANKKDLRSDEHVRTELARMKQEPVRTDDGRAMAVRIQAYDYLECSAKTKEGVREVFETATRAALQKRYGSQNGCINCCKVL

| GI50 (NCI-H23 [6]) | GI50 (HCT-15 [9]) | GI50 (PC-3 [10]) | Structure (SMILES) | growth, % of control at 0.3 µM (NCI-H23 [1]) | growth, % of control at 10 µM (NUGC-3 [2]) | growth, % of control at 10 µM (HCT-15 [3]) | growth, % of control at 1 µM (HCT-15 [4]) | growth, % of control at 0.3 µM (ACHN [5]) | GI50 (NUGC-3 [7]) | growth, % of control at 10 µM (ACHN [8]) | growth, % of control at 10 µM (NCI-H23 [11]) | growth, % of control at 0.1 µM (HCT-15 [12]) | growth, % of control at 0.1 µM (PC-3 [13]) | growth, % of control at 3 µM (PC-3 [14]) | growth, % of control at 0.3 µM (NUGC-3 [15]) | growth, % of control at 3 µM (MDA-MB-231 [16]) | growth, % of control at 0.1 µM (NCI-H23 [17]) | growth, % of control at 0.1 µM (MDA-MB-231 [18]) | growth, % of control at 1 µM (NUGC-3 [19]) | growth, % of control at 0.1 µM (ACHN [20]) | other results |
| --- | --- | --- | --- | --- | --- | --- | --- | --- | --- | --- | --- | --- | --- | --- | --- | --- | --- | --- | --- | --- | --- |
| 590 nM | 1610 nM | 340 nM | CCCCCCCCCCCCCCS(=O)(=O)N(C)CC[N+](C)(C)CC | 94.6% | 10.1% | 21.7% | 76.3% | 104% | 300 nM | 25% | 16.3% | 98.2% | 96.5% | 13.3% | 95.6% | 36.4% | 92.5% | 99% | 43.3% | 105% | growth, % of control at 0.3 µM (MDA-MB-231 [21]): 91.6%; growth, % of control at 3 µM (HCT-15 [22]): 41.1%; growth, % of control at 10 µM (MDA-MB-231 [23]): 18.2%; growth, % of control at 3 µM (NUGC-3 [24]): 19%; growth, % of control at 1 µM (NCI-H23 [25]): 86.6%; growth, % of control at 10 µM (PC-3 [26]): -12.3%; Activity [27]: Active; growth, % of control at 1 µM (MDA-MB-231 [28]): 63.1%; growth, % of control at 0.1 µM (NUGC-3 [29]): 96.8%; growth, % of control at 0.3 µM (HCT-15 [30]): 96.8%; growth, % of control at 1 µM (ACHN [31]): 77.1%; growth, % of control at 1 µM (PC-3 [32]): 57.1%; growth, % of control at 3 µM (NCI-H23 [33]): 53.6%; growth, % of control at 3 µM (ACHN [34]): 50.1%; GI50 (MDA-MB-231 [35]): 990 nM; GI50 (ACHN [36]): 1300 nM; growth, % of control at 0.3 µM (PC-3 [37]): 95.3% |
| 450 nM | 1810 nM | 760 nM | C=CC[N+](CC)(CC)CCN(C)S(=O)(=O)CCCCCCCCCCCCCCCC | 78.4% | -20.2% | -7% | 84% | 88.2% | 390 nM | -11.8% | -7.6% | 87.9% | 88.2% | 10% | 86.6% | 42.9% | 77.9% | 94.8% | 34.9% | 85.9% | growth, % of control at 0.3 µM (MDA-MB-231 [21]): 97%; growth, % of control at 3 µM (HCT-15 [22]): 66.6%; growth, % of control at 10 µM (MDA-MB-231 [23]): 9.2%; growth, % of control at 3 µM (NUGC-3 [24]): 4.9%; growth, % of control at 1 µM (NCI-H23 [25]): 51.3%; growth, % of control at 10 µM (PC-3 [26]): -13.2%; Activity [27]: Active; growth, % of control at 1 µM (MDA-MB-231 [28]): 80.6%; growth, % of control at 0.1 µM (NUGC-3 [29]): 89.1%; growth, % of control at 0.3 µM (HCT-15 [30]): 90.7%; growth, % of control at 1 µM (ACHN [31]): 82.2%; growth, % of control at 1 µM (PC-3 [32]): 73.3%; growth, % of control at 3 µM (NCI-H23 [33]): 16.9%; growth, % of control at 3 µM (ACHN [34]): 50.4%; GI50 (MDA-MB-231 [35]): 1340 nM; GI50 (ACHN [36]): 1450 nM; growth, % of control at 0.3 µM (PC-3 [37]): 91% |
